From patent US8329658B2, “Arylalkyl and heteroarylalkyl derivatives of cyclosporine A for the treatment and prevention of viral infection” (Scynexis, Inc., priority 2005, dated 2012)

What was measured:
[1] = test system: human hepatoma cell line ET (lub ubi neo/ET); assay: Cytotoxicity (colorimetric cell number assay) in HCV replicon ET cell line; details: for IC50: read-out: Cytotoxicity IC50, concentration inhibiting cell viability by 50%, ET cells, 72 hours; for IC90: read-out: Cytotoxicity IC90, concentration inhibiting cell viability by 90%, ET cells, 72 hours
Source text: (§1) Compounds were examined in the human hepatoma cell line ET (lub ubi neo/ET), a HCV RNA replicon containing a stable luciferase (LUC) reporter. The HCV RNA replicon ET contains the 5′ end of HCV (with the HCV Internal Ribosome Entry Site (IRES) and the first few amino acids of the HCV core protein) which drives the production of a firefly luciferase (LUC), ubiquitin, and neomycin phosphotransferase (NeoR) fusion protein. Ubiquitin cleavage releases the LUC and NeoR proteins. The EMCV IRES element controls the translation of the HCV […] NS3-NS5. The NS3 protein cleaves the HCV polyprotein to release the mature NS3, NS4A, NS4B, NS5A and NS5B proteins that are required for HCV replication. At the 3′ end of the replicon is the authentic 3′ NTR of HCV. The activity of the LUC reporter is directly proportional to HCV replication levels and positive-control antiviral compounds produce a reproducible antiviral response using the LUC endpoint.
(§2) The compounds were dissolved in DMSO at five half-log concentrations each, ranging from either 0.02 to 2 μM or 0.2 to 20 μM. Subconfluent cultures of the ET line were plated out into 96 well plates dedicated for the analysis of cell numbers (cytotoxicity) or antiviral activity and the next day the compounds were added to the appropriate wells. […] Compound EC50 and EC90 values were derived from HCV RNA levels assessed as HCV RNA replicon derived LUC activity. […] Compound IC50 and IC90 values were calculated using a colorimetric assay as an indication of cell numbers and cytotoxicity. The activity of the LUC reporter is directly proportional to HCV RNA levels in the human cell line. The HCV-replicon assay was validated in parallel experiments using interferon-alpha-2b as a positive control.

[2] = test system: HCV RNA replicon ET; assay: HCV RNA replicon luciferase (LUC) reporter assay in ET cell line; assay type: cell-based; details: replicon LUC activity, ET cells, 72 hours; for EC50: concentration reducing viral replication by 50%; for EC90: concentration reducing viral replication by 90%
Source text: as §1, §2

[3] = test system: HIV-1IIIB; assay: HIV MTS cytoprotection assay in CEM-SS cells; assay type: cell-based, human immunodeficiency virus-1 (HIV); details: concentration inhibiting virus replication by 50%, 6 days post-infection, NS is no significant activity
Procedure: (§3) The compounds of the present invention were tested for antiretroviral activity against human immunodeficiency virus-1 (HIV) using infection of the human T-lymphoblastoid cell line, CEM-SS, with the HIV strain HIV-1IIIB (Weislow et al., 1989, J. Natl. Cancer Inst. 81, 577-586). In this MTS cytoprotection assay, each experiment included cell control wells (cells only), virus control wells (cells plus virus), drug toxicity wells (cells plus drug only), drug colorimetric control wells (drug only) as well as experimental wells (drug plus cells plus virus). Compounds were first dissolved in DMSO and tested using six half-log dilutions, starting with a high concentration of either 20 or 2 μM. […] was added to each well in a volume of 50 μL, the amount of virus determined to give approximately 90% cell killing at 6 days post-infection. At assay termination, assay plates were stained with the soluble tetrazolium-based dye MTS (CellTiter 96 Reagent, Promega) to determine cell viability and quantify compound toxicity. MTS is metabolized by the mitochondria enzymes of metabolically active cells to yield a soluble formazan product, providing a quantitative analysis of cell viability and compound cytotoxicity. The assay was validated in parallel experiments using Zidovudine (3′-azido-3′-deoxythymidine or AZT) as a positive control. The assay included determinations of compound EC50 (concentration inhibiting virus replication by 50%), IC50 (concentration resulting in 50% inhibition of cell growth) and a selectivity index (IC50/EC50).

[4] = test system: human T-lymphoblastoid cell line, CEM-SS; assay: Cytotoxicity (MTS) in CEM-SS cells; assay type: cell-based; details: concentration resulting in 50% inhibition of cell growth
Procedure: as §3

| Molecule | IC50 [1] | IC90 [1] | EC50 [2] | EC90 [2] | EC50 [3] | IC50 [4] |
| --- | --- | --- | --- | --- | --- | --- |
| C/C=C/C[C@@H](C)[C@@H](O)[C@H]1C(=O)N[C@@H](CC)C(=O)N(C)C(OCc2ccco2)C(=O)N(C)[C@@H](CC(C)C)C(=O)N[C@@H](C(C)C)C(=O)N(C)[C@@H](CC(C)C)C(=O)N[C@@H](C)C(=O)N[C@H](C)C(=O)N(C)[C@@H](CC(C)C)C(=O)N(C)[C@@H](CC(C)C)C(=O)N(C)[C@@H](C(C)C)C(=O)N1C (stereo partly drawn) [D, 3-[(furan-2-yl)methoxy]cyclosporin] | 18000 nM | > 20000 nM | 290 nM | 570 nM | 580 nM | > 20000 nM |
| C/C=C/C[C@@H](C)[C@@H](O)[C@H]1C(=O)N[C@@H](CC)C(=O)N(C)C(OCc2ccsc2)C(=O)N(C)[C@@H](CC(C)C)C(=O)N[C@@H](C(C)C)C(=O)N(C)[C@@H](CC(C)C)C(=O)N[C@@H](C)C(=O)N[C@H](C)C(=O)N(C)[C@@H](CC(C)C)C(=O)N(C)[C@@H](CC(C)C)C(=O)N(C)[C@@H](C(C)C)C(=O)N1C (stereo partly drawn) [G, 3-[(thiophene-3-yl)methoxy]cyclosporin] | > 20000 nM | > 20000 nM | 350 nM | 400 nM | 3000 nM | > 20000 nM |
| C/C=C/C[C@@H](C)[C@@H](O)[C@H]1C(=O)N[C@@H](CC)C(=O)N(C)C(OCc2ccc(OC(F)(F)F)cc2)C(=O)N(C)[C@@H](CC(C)C)C(=O)N[C@@H](C(C)C)C(=O)N(C)[C@@H](CC(C)C)C(=O)N[C@@H](C)C(=O)N[C@H](C)C(=O)N(C)[C@@H](CC(C)C)C(=O)N(C)[C@@H](CC(C)C)C(=O)N(C)[C@@H](C(C)C)C(=O)N1C (stereo partly drawn) [F, 3-[(4-trifluoromethoxy)benzyloxy]cyclosporin] | > 20000 nM | > 20000 nM | 1180 nM | 5420 nM | > 20000 nM | > 20000 nM |
| 3-benzyloxycyclosporin [Compound B] | 20000 nM | > 20000 nM | 260 nM | 590 nM | 590 nM | > 20000 nM |
| CC=CCC(C)C(O)C1C(=O)NC(CC)C(=O)N(C)C(SCc2ccccc2)C(=O)N(C)C(CC(C)C)C(=O)NC(C(C)C)C(=O)N(C)C(CC(C)C)C(=O)NC(C)C(=O)NC(C)C(=O)N(C)C(CC(C)C)C(=O)N(C)C(CC(C)C)C(=O)N(C)C(C(C)C)C(=O)N1C (stereo not drawn) [Compound A, 3-benzylthiocyclosporin] | 20000 nM | > 20000 nM | 720 nM | 1840 nM | 530 nM | > 20000 nM |
| C/C=C/C[C@@H](C)[C@@H](O)[C@H]1C(=O)N[C@@H](CC)C(=O)N(C)C(OCc2ccoc2)C(=O)N(C)[C@@H](CC(C)C)C(=O)N[C@@H](C(C)C)C(=O)N(C)[C@@H](CC(C)C)C(=O)N[C@@H](C)C(=O)N[C@H](C)C(=O)N(C)[C@@H](CC(C)C)C(=O)N(C)[C@@H](CC(C)C)C(=O)N(C)[C@@H](C(C)C)C(=O)N1C (stereo partly drawn) [Compound E, 3-[(furan-3-yl)methoxy]cyclosporin] | > 20000 nM | > 20000 nM | 250 nM | 600 nM | 880 nM | > 20000 nM |
| C/C=C/C[C@@H](C)[C@@H](O)[C@H]1C(=O)N[C@@H](CC)C(=O)N(C)C(OCc2cccs2)C(=O)N(C)[C@@H](CC(C)C)C(=O)N[C@@H](C(C)C)C(=O)N(C)[C@@H](CC(C)C)C(=O)N[C@@H](C)C(=O)N[C@H](C)C(=O)N(C)[C@@H](CC(C)C)C(=O)N(C)[C@@H](CC(C)C)C(=O)N(C)[C@@H](C(C)C)C(=O)N1C (stereo partly drawn) [C, 3-[(thiophene-2-yl)methoxy]cyclosporin] | 11000 nM | > 20000 nM | 350 nM | 1260 nM | 900 nM | > 20000 nM |
